The test system of data set [1] is iNKT cells. As to the kind of experiment: Cytokine production (ELISA) by iNKT cells co-cultured with antigen presenting cells (MM1S.CD1d cells or DCs), with or without α-GalCer. Type of data set: cell-based, human. The protocol:
1×10^5 NKT cells from MM patients were plated in a 96-well plate with MM1S.CD1d cells or DCs at ratios of 2:1 and 4:1, respectively, with or without pre-loaded α-GalCer (100 ng/ml). 1-Oxo-2-(2,6-dioxopiperidin-3-yl)-4-aminoisoindoline (2 μM) was used as indicated, with DMSO as control. The supernatant was collected at 48 and 72 hours and the levels of IFN-γ, IL-2 and IL-4 were determined by ELISA (R&D Systems, Minneapolis, Minn.).
Background: In an ELISA, binding on a coated surface is turned into a signal by an enzyme label.

Data set [2] has as its system iNKT cells. The data set is described as above. Type of data set: cell-based, human. The source holds these as a separate data set.
For data set [3] the following is noted: cited from earlier work; for Hygroscopicity: polymorphic form; for Interconversion in solvent systems: interconversion studies.
[4] abbreviates: iNKT cells + MM1S.CD1d cells in the absence of α-GalCer, compound 2 μM, ELISA.
[5] abbreviates: iNKT cells + α-GalCer-loaded MM1S.CD1d cells, compound 2 μM vs controls (DMSO), ELISA.

The values that follow come from patent publication US20090068210A1, “IMMUNOTHERAPY FOR HEMATOLOGICAL MALIGNANCIES” (priority 2007, published 2009).

Turning to `Nc1cccc2c1CN(C1CCC(=O)NC1=O)C2=O` (stereo not shown) [1-oxo-2-(2,6-dioxopiperidin-3-yl)-4-aminoisoindoline], the IL-4 level result in data set [1] (iNKT cells + CD1d expressing multiple myeloma cells without α-GalCer, compound vs cells alone) is on record as “decrease”. In addition, in data set [1] (setting [4]), the IFN-γ production result is “increase” and the IL-2 production entry was “increase”. Also, in data set [1] (setting [5]), the IFN-γ level result is recorded as “significant increase”, the IL-2 level result was “significant increase” and the IL-4 level entry was “decrease”. In addition, the “Increase in IFN-γ and IL-2 levels and decrease in IL-4 level” value in data set [2] (CD1d-transfected C1R cells as antigen presenting cells) is on record as “confirmed”. The “Direct stimulation of iNKT cells” value in data set [2] (iNKT cells alone or co-cultured with mock MM.1S cells, with or without α-GalCer) is listed as “did not directly stimulate”.
`Nc1cccc2c1CN(C1CCC(=O)NC1=O)C2=O` (stereo not shown) [Form A, 3-(4-amino-1-oxo-1,3 dihydro-isoindol-2-yl)-piperidene-2,6-dione]: the “Relative stability among polymorphs” value in data set [3] (Form A: anhydrous polymorphs, Form E: aqueous solvent systems) was “most thermodynamically stable anhydrous polymorph”. Also, in data set [3], the Hygroscopicity result was “weakly or not hygroscopic”.
Turning to `Nc1cccc2c1CN(C1CCC(=O)NC1=O)C2=O` (stereo not shown) [Form B, 3-(4-amino-1-oxo-1,3 dihydro-isoindol-2-yl)-piperidene-2,6-dione], the Conversion upon heating result in data set [3] (175° C. for about five minutes) was “can convert to Form F”. For the same compound, the “Interconversion in solvent systems” value in data set [3] is listed as “converts to Form E in aqueous solvent systems”.
Turning to `Nc1cccc2c1CN(C1CCC(=O)NC1=O)C2=O` (stereo not shown) [Form C, 3-(4-amino-1-oxo-1,3 dihydro-isoindol-2-yl)-piperidene-2,6-dione], the Hygroscopicity result in data set [3] is “not hygroscopic below about 85% RH”.
Consider `Nc1cccc2c1CN(C1CCC(=O)NC1=O)C2=O` (stereo not shown) [Form D, 3-(4-amino-1-oxo-1,3 dihydro-isoindol-2-yl)-piperidene-2,6-dione], for which, in data set [3], the Hygroscopicity entry is given as “either weakly or not hygroscopic”.
As to `Nc1cccc2c1CN(C1CCC(=O)NC1=O)C2=O` (stereo not shown) [Form E, 3-(4-amino-1-oxo-1,3 dihydro-isoindol-2-yl)-piperidene-2,6-dione], in data set [3] (about 125° C. for about five minutes), the “Conversion upon heating (desolvation)” value is “can convert to Form B”. In data set [3], the “Interconversion in solvent systems” value was “can convert to Form C in an acetone solvent system and to Form G in a THF solvent system”.
